Measurements: patent US20120058133A1, “INHIBITION OF TRNA SYNTHETASES AND THERAPEUTIC APPLICATIONS THEREOF” (President and Fellows of Harvard College, priority 2009, published 2012)
Entries after “also recorded” stand apart in the source; their conditions may differ.

What was measured:
[1] = system: translation in rabbit reticulocyte lysate; experiment: In vitro translation in rabbit reticulocyte lysate (RRL); type: biochemical; details: for rescue of translation inhibition by added amino acids: excess amino acids (1-2 mM)
Description: FIG. 23. HF and FF inhibit prolyl tRNA synthetase activity in vitro. […] Rabbit reticulocyte lysate (RRL) was incubated with luciferase mRNA and translation quantitated in a luminescence assay. A high concentration of mixed or individual amino acids (1 mM of each) was added to rescue translational inhibition. AA Mix 1: Asn, Arg, Val, Glu, Gly; AA Mix2: Lys, Ile, Tyr, Asp, Trp; Mix 3: His, Met, Leu, Ala, Thr; Mix 4: Ser, Phe, Pro, Gln. […] Note log scale of y axis.
Inhibitors (FIG. 22) and proline were assayed as described in FIG. 23A. Note log scale at Y axis. Error bars reflect standard deviation of triplicate determinations.
Short myc-tagged polypeptides of identical sequence (see Example 9, “Materials and Methods”) with the exception that NoPro lacks proline, while ProPro contains a proline dipeptide, were translated in RRL in the presence of indicated inhibitors. Translation was examined by anti-myc Western blot.
Note log scale of Y axis.
Translation in vitro was performed using rabbit reticulocyte lysates and luciferase mRNA as template. Translation was measured as arbitrary units of luciferase activity using a luminometer based luminescence assay. Log scale presentation of background-subtracted data is shown.

prolyl tRNA synthetase = biological target: T1, prolyl tRNA synthetase (Oryctolagus cuniculus, UniProt G1T2I4); experiment: tRNA charging in RRL (14C Pro or 35S Met incorporation into tRNA); type: biochemical, rabbit
T1 construct: from tissue; host or cells: rabbit reticulocyte lysate (RRL)
T1 sequence (G1T2I4 1-1447): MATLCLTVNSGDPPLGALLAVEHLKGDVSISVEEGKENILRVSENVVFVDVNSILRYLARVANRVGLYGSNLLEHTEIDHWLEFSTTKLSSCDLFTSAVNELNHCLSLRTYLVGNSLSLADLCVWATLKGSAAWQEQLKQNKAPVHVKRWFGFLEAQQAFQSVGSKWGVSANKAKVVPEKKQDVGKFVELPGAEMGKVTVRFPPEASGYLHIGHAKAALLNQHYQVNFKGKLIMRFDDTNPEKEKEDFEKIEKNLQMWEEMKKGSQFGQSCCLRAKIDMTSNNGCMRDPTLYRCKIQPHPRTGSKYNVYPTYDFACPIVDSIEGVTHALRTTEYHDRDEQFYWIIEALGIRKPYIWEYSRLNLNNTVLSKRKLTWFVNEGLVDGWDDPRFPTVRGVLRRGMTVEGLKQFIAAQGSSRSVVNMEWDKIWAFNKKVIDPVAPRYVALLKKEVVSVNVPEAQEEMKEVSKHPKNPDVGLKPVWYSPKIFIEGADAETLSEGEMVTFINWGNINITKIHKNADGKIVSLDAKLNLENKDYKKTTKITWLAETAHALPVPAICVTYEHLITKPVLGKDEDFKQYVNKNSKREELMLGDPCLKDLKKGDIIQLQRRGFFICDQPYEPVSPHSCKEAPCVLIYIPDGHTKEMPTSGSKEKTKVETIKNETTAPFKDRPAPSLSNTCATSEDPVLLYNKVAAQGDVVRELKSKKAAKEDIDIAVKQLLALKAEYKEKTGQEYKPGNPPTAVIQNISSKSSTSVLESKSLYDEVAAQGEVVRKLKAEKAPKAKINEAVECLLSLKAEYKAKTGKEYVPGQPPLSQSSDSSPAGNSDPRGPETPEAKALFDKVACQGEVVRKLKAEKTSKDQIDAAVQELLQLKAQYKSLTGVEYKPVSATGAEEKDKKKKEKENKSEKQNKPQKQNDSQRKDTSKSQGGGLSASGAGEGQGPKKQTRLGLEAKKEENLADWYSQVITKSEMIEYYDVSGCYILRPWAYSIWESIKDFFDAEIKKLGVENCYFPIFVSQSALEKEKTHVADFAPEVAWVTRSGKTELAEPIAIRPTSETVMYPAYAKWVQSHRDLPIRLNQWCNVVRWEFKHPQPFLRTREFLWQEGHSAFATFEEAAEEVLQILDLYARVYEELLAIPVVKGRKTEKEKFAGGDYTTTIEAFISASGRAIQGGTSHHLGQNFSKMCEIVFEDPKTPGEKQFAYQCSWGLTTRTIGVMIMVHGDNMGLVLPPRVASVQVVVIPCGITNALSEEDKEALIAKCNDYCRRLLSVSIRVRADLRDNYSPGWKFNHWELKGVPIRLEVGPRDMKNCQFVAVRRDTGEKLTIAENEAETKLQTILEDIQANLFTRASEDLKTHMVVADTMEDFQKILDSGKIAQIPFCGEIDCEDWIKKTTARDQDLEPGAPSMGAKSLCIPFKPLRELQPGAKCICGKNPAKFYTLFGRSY
Description: FIG. 23D is a graph showing that HF inhibits prolyl tRNA synthetase activity in RRL. ^14C Pro or ^35S Met were incubated with RRL and total bovine tRNA in the presence or absence of HF or MAZ1310, and incorporation of radioactivity into tRNA was measured by liquid scintillation counting. Error bars reflect standard deviation of triplicate determinations. Data are representative of two separate experiments.
(§1) The effects of HF on prolyl-tRNA charging was examined. RRL were supplemented with ^14C-Pro or ^35S-Met in the presence or absence of HF, and total tRNA was isolated (FIG. 23D).

EPRS = experiment: Prolyl-tRNA charging by purified EPRS; type: biochemical, rat
Description: FIG. 23E is a graph showing that HF inhibits purified EPRS activity. EPRS was purified from rat liver and assayed for prolyl-tRNA charging activity as previously described (Ting, S. M., Bogner, P. & Dignam, J. D. Isolation of prolyl-tRNA synthetase as a free form and as a form associated with glutamyl-tRNA synthetase. J Biol Chem 267, 17701-17709, (1992)). Data are representative of three separate experiments.
as §1

mTOR pathway = mTOR pathway signaling in fibroblasts; type: cell-based, mouse; details: 100 nM HF
Description: FIG. 25. […] MEFs growing in DME/10% FCS were treated with 100 nM HF or 0.5 μM Rapamycin and analyzed by Western blot for phosphorylation of component of the mTor signaling pathway. Lane 1: 100 nM MAZ1310 1 hr; Lane 2: 100 nM HF 8 hr; Lane 3: 100 nM HF 4 hr; Lane 4: 100 nM HF 2 hr; Lane 5: 100 nM HF 1 hr; Lane 6: 0.5 μM Rapamycin 1 hr.

Smad2 phosphorylation = experiment: TGFβ-stimulated Smad2 phosphorylation in fibroblasts; type: cell-based, mouse
Description: FIG. 30. Proline addition to fibroblasts rescues HF-inhibition of TGFβ Signaling. MEFs were treated with HF for 12 hours in the presence or absence of 2 mM proline, treated with 2 ng/mL TGFβ for 1 hour, and assayed for total Smad2 or pSmad2 by Western blot. Total and pSmad2 levels were quantitated using Image J software (bottom panel). Data are representative of three separate experiments.
FIG. 31. HF Dose response for pGCN2-induction and pSmad2-inhibition. Fibroblasts were treated for 12 hours with the indicated dose of HF and analyzed for Smad2 or GCN2 phosphorylation by Western blot. Data are representative of three separate experiments.
FIG. 32. pSmad2 inhibition by HF develops slowly over time. Fibroblasts were treated for the indicated time with 20 nM HF, then treated for 1 hr with 2 ng/mL TGFβ and analyzed for phosphorylation of Smad2 or GCN2 by Western blot. Data are representative of three separate experiments. Bottom panel: Western data in top panel were quantitated using Image J software.

For `O=C(CC1NCCCC1O)Cn1cnc2cc(Br)c(Cl)cc2c1=O` (racemic) [HF, halofuginone], the “translation of NoPro polypeptide” value [1] was “had no effect on the translation of NoPro”, the “translation of ProPro polypeptide” value [1] was “prevented translation of ProPro” and the “rescue of translation inhibition by added purified EPRS” value ([1]; 80 ng or 0.5 μg EPRS) was “rescued HF/FF-inhibition of protein translation”. For the same compound, the “translation of luciferase mRNA” value ([1]; 400 nM halofuginone) was “inhibition of translation”, the “eIF2-alpha phosphorylation in RRL” value ([1]; data not shown) was “no increase” and the “rescue of translation inhibition by added amino acids” value [1] was “only proline could restore translation”. The “rescue of translation inhibition by added amino acids” value ([1]; listed as halofuginone) was “rescues inhibition of translation by halofuginone”, the “translation of luciferase RNA in RRL” value ([1]; standard amino acid mix) was “inhibited the translation of luciferase RNA” and the “incorporation of 14C-Pro into tRNA” value (prolyl tRNA synthetase) was “inhibited”. For the same compound, the “reconstituted prolyl-tRNA charging reaction with purified EPRS” value (EPRS) was “inhibited this reaction”, the “signaling downstream of mTOR” value (mTOR pathway) was “does not directly inhibit downstream targets of the mTOR pathway; also recorded: did not inhibit signaling downstream of mTOR; also recorded: without concomitant inhibition of mTOR signaling” and the “time course of Smad2 inhibition versus GCN2 phosphorylation” value (Smad2 phosphorylation; 20 nM HF) was “much slower”. For the same compound, the “reversal of Smad2 phosphorylation inhibition by proline” value (Smad2 phosphorylation; 2 mM proline) was “reversed by the addition of proline” and the “TGF-beta-stimulated Smad2 phosphorylation” value (Smad2 phosphorylation; 12 hours HF, same dose range as GCN2 phosphorylation) was “reduced TGF-beta-stimulated Smad2 phosphorylation”.
